The record followed here is patent publication US8614253B2, “IRE-1α inhibitors” (MannKind Corporation, priority 2007, dated 2013).

The test system of assay [1] is RPMI-8226 multiple myeloma cells. The experiment in a line: Proliferation of multiple myeloma cells (CellTiter-Glo). In kind it is cell-based, human. As to conditions: RPMI8226 cells, 24 hours, FIG. 5. How it is done:
FIG. 5. Graph showing inhibition of proliferation of multiple myeloma cells by IRE-1α inhibitor 11-28 (Example 11). RPMI-8226 multiple myeloma cells were seeded at 20,000 cells per well in RPMI culture medium containing 1% FBS and the required antibiotics. The plate was incubated overnight at 37° C., 95% air, 5% CO2. The following day, compound 11-28 or medium alone was added to wells, resulting in a final volume of 100 μl per well. The compound concentration ranged from 100 μM to 0 μM, with compounds diluted by a factor of 4. After addition of compound, the plate was incubated at 37° C., 95% air, 5% CO2 for 24 hours. Cell proliferation was measured using the CellTiter-Glo assay (Promega), following the manufacturer's instructions.
Proliferation assays using myeloma cell lines (U266, RPMI8226 and MM.1s) are used to determine ED50. Compounds are used as single agents and in combination with other chemotherapeutic drugs.
Background: ATP-based viability assays read luminescence as a measure of living cells.

The target in assay [2] is T1, IRE-1α (Homo sapiens (Human), UniProt O75460). The experiment in a line: IRE-1α assay: in vitro cleavage of mini-XBP-1 mRNA stem-loop substrate by GST-IRE-1α. In kind it is biochemical. How it is done: A fusion protein comprising glutathione S transferase (GST) and human IRE-1α (GST-IRE-1α) was obtained from a 500 ml baculovirus-infected insect cell culture and used to measure IRE-1α activity in vitro.
Five μl of a reaction mixture comprising 1× reaction buffer (5× reaction buffer is 100 mM Hepes pH 7.5, 250 mM KOAc, 2.5 mM MgCl2), 3 mM DTT, and 0.4% polyethylene glycol water were added to each well of 384 well plates. Twenty-five nanoliters of a 1 mM test compound solution were added to test wells. […] Negative control wells contained only reaction mixture and test compound.
The plates were again spun at 1200 rpm for 30 seconds.
The plates were covered with lids and incubated for one hour at 30° C. The plates were then transferred to an ACQUEST™ microplate reader. Data was analyzed using data analysis software, and the percent activity of IRE-1α was calculated.
Target sequence in this assay (O75460 19-977): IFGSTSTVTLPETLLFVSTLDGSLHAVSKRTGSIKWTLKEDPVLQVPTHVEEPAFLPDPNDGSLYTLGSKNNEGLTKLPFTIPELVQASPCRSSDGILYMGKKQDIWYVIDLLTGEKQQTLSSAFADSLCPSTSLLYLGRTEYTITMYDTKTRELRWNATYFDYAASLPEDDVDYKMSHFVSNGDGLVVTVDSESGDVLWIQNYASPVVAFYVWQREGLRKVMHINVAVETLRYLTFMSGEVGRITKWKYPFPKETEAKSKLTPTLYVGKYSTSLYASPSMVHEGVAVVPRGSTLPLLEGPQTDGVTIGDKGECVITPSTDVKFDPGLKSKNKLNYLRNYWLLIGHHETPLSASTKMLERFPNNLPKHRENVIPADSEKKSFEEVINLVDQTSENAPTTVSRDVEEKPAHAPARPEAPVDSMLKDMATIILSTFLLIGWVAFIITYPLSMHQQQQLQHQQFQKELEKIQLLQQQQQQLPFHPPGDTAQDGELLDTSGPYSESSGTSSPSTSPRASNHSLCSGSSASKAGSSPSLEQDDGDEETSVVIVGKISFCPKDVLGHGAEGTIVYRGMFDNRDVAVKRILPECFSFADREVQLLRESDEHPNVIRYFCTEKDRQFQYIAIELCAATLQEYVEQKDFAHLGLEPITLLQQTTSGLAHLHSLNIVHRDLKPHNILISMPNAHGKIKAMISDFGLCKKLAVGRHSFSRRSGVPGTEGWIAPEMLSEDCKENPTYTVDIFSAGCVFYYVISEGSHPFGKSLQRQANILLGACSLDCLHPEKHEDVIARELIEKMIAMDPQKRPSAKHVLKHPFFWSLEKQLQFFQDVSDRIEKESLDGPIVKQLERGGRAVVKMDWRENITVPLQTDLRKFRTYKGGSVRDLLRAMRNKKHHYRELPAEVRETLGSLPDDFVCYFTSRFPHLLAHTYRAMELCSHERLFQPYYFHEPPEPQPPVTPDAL

The subject of assay [3] is human myeloma RPMI8226 tumor xenografts. The experiment in a line: RPMI8226 myeloma tumor xenograft in SCID mice. In kind it is in vivo, mouse. As to conditions: 0.75 mg/kg IV twice weekly.
Assay [4] addresses T1, IRE-1α. As to the kind of experiment: Phosphorylated IRE-1α and XBP1-splicing in RPMI8226 cells (Western blot, agarose gel). In kind it is cell-based. As to conditions: 24 hour treatment, FIG. 6. The source says:
FIG. 6. […] The numbers indicate the concentration of bortezomib in nM.
In general terms: A western blot detects proteins with antibodies after separation by electrophoresis.

Assay [5] concerns primary murine B cells. The experiment in a line: IgM secretion after LPS stimulation of primary murine B cells. In kind it is cell-based, mouse. How it is done: FIG. 9. Inhibition of IgM secretion after LPS stimulation of primary murine B cells with selected IRE-1α inhibitors. […] However, compounds had little effect when at added after 40 hours of stimulation; only slight inhibition at the highest dose. Methods were performed as previously described by Iwakoshi et al., Nature 4, 321-29, 2003 for B cell stimulation, plasma cell differentiation and IgM secretion. Primary B cells were Isolated from BALB/c splenocytes using mouse CD43 Microbeads (Miltenyi cat# 130-049-801) with 1×10^6 cells per treatment. Purified B cells were stimulated in B Cell Media at a final density of 1×10^6/ml/well in 24-well plates with 20 μg/ml LPS (Sigma cat# L4391). IRE-1α inhibitor compound 17-1 was added at various concentrations (50 μM, 10 μM, 2 μM, 0.4 μM and 0.08 μM) at specified time points (t=0, t=24 hr, t=40 hr, etc.) Cells were incubated for 48 hr at 37° C. At end of the incubation, cells were spun in a plate at 1500 rpm/3 min. Supernatants were collected for quantitation for IgM secretion using a mouse IgM ELISA Kit (Bethyl Labs cat# E90-101). B Cell medium included RPMI+10% FBS supplemented with NEAA, HEPES, NaPyr, PSQ, and β-mercaptoethanol.

Regarding `COc1cc(-c2cccs2)cc(C=O)c1O` [11-28], the inhibition of proliferation entry in assay [1] is “inhibits the proliferation of RPMI8226 myeloma cells”.
For orientation: IC50 means the concentration at which inhibition is half-maximal. The low end stands for greater potency, the high end for weaker potency. Turning to `COc1ccc(Br)c(C=O)c1O` [drawing 180], the IC50 in assay [2] (Table 3) turned out to be 80 nM.
As for `COc1cccc(C=O)c1O` [drawing 238], it took 5750 nM to reach half-maximal inhibition in assay [2] (Table 3) (IC50).
With `CC(C)C[C@H](NC(=O)[C@H](Cc1ccccc1)NC(=O)c1cnccn1)B(O)O` [bortezomib, [(1R)-3-methyl-1-[[(2S)-1-oxo-3-phenyl-2-[(pyrazinylcarbonyl)amino]propyl]amino]butyl]boronic acid], the tumor growth result in assay [3] was “suppression of tumor growth”. Further, the “levels of phosphorylated IRE-1α and XBP1-splicing” value in assay [4] is “increases the levels of phosphorylated IRE-1α and XBP1-splicing”.
Consider `COc1ccc(Br)c(C=O)c1O` [6-bromo o-vanillin], for which the concentration for half-maximal inhibition (IC50) in assay [2] (values in text) stood at 30 nM.
For `COc1cccc(C=O)c1O` [drawing 230], in assay [2] (Table 3), inhibition was half-maximal at 2370 nM (IC50).
On to `COc1cccc(C=O)c1O` [o-vanillin, 2-hydroxy-3-methoxybenzaldehyde], for which, in assay [2] (values in text), the concentration for half-maximal inhibition (IC50) stood at 3000 nM.
With `CN(C)C(=O)c1ccc(-c2ccc3c(C=O)c(O)ccc3c2)cc1` [17-1, 4-(5-formyl-6-hydroxynaphthalen-2-yl)-N,N-dimethylbenzamide], the IgM secretion result in assay [5] (added after 40 hours of stimulation) is recorded as “little effect”; in assay [5] (added at beginning of stimulation and again at 24 hours), “blocked IgM secretion at all doses tested down to 100 nM”.
